# Measurements as given in ChEMBL document CHEMBL1833797, “Microwave assisted synthesis and antimicrobial evaluation of new fused pyran derivatives bearing 2-morpholinoquinoline nucleus” (2011).
# Assays:
# Streptococcus pneumoniae = assay: Antimicrobial activity against Streptococcus pneumoniae MTCC 1936 for 24 hrs by microdilution method; assay type: functional; conditions: MTCC 1936, 24 h
# Clostridium tetani = assay: Antimicrobial activity against Clostridium tetani MTCC 449 for 24 hrs by microdilution method; assay type: functional; conditions: MTCC 449, 24 h
# Bacillus subtilis = assay: Antimicrobial activity against Bacillus subtilis MTCC 441 for 24 hrs by microdilution method; assay type: functional; conditions: MTCC 441, 24 h
# Salmonella typhi = assay: Antimicrobial activity against Salmonella typhi MTCC 98 for 24 hrs by microdilution method; assay type: functional, Salmonella enterica subsp. enterica serovar Typhi; conditions: Salmonella enterica, MTCC 98, 24 h
# Vibrio cholerae = assay: Antimicrobial activity against Vibrio cholerae MTCC 3906 for 24 hrs by microdilution method; assay type: functional; conditions: MTCC 3906, 24 h
# Escherichia coli = assay: Antimicrobial activity against Escherichia coli MTCC 443 for 24 hrs by microdilution method; assay type: functional; conditions: MTCC 443, 24 h
# Aspergillus fumigatus = assay: Antifungal activity against Aspergillus fumigatus MTCC 3008 for 48 hrs by microdilution method; assay type: functional; conditions: MTCC 3008, 48 h
# Candida albicans = assay: Antifungal activity against Candida albicans MTCC 227 for 48 hrs by microdilution method; assay type: functional; conditions: MTCC 227, 48 h
Structure (SMILES),MIC (Streptococcus pneumoniae) [mg/L],MIC (Clostridium tetani) [mg/L],MIC (Bacillus subtilis) [mg/L],MIC (Salmonella typhi) [mg/L],MIC (Vibrio cholerae) [mg/L],MIC (Escherichia coli) [mg/L],MIC (Aspergillus fumigatus) [mg/L],MIC (Candida albicans) [mg/L]
CCn1cc(C(=O)O)c(=O)c2cc(F)c(N3CCNCC3)cc21 [NORFLOXACIN],10,50,100,10,10,10,–,–
COc1ccc2nc(N3CCOCC3)c(C3C(C#N)=C(N)OC4=C3C(=O)c3ccccc3C4=O)cc2c1 (configuration not stated),200,100,200,200,250,100,1000,> 1000
N#CC1=C(N)Oc2c(ccc3ccccc23)C1c1cc2ccccc2nc1N1CCOCC1 (configuration not stated),500,250,250,500,500,500,> 1000,500
N#CC1=C(N)OC2=C(C(=O)c3ccccc3C2=O)C1c1cc2ccccc2nc1N1CCOCC1 (configuration not stated),500,500,500,12.5,500,200,> 1000,100
Cc1ccc2nc(N3CCOCC3)c(C3C(C#N)=C(N)OC4=C3C(=O)CC(C)(C)C4)cc2c1 (configuration not stated),25,500,200,250,250,200,1000,250
Cc1ccc2nc(N3CCOCC3)c(C3C(C#N)=C(N)Oc4[nH]nc(C)c43)cc2c1 (configuration not stated),200,250,200,250,250,200,1000,1000
Cc1ccc2nc(N3CCOCC3)c(C3C(C#N)=C(N)Oc4cc(C)oc(=O)c43)cc2c1 (configuration not stated),500,200,500,200,200,100,200,1000
COc1ccc2nc(N3CCOCC3)c(C3C(C#N)=C(N)OC4=C3C(=O)CC(C)(C)C4)cc2c1 (configuration not stated),100,500,100,500,500,500,100,1000
COc1ccc2nc(N3CCOCC3)c(C3C(C#N)=C(N)Oc4cc(C)oc(=O)c43)cc2c1 (configuration not stated),250,250,200,250,250,200,1000,250
Cc1ccc2nc(N3CCOCC3)c(C3C(C#N)=C(N)Oc4c3c(=O)oc3ccccc43)cc2c1 (configuration not stated),500,250,500,250,12.5,250,500,500
CC1(C)S[C@@H]2[C@H](NC(=O)[C@H](N)c3ccccc3)C(=O)N2[C@H]1C(=O)O [AMPICILLIN],100,250,250,100,100,100,–,–
Cc1cc2c(c(=O)o1)C(c1cc3ccccc3nc1N1CCOCC1)C(C#N)=C(N)O2 (configuration not stated),200,100,200,100,100,62.5,200,1000
Cc1n[nH]c2c1C(c1cc3ccccc3nc1N1CCOCC1)C(C#N)=C(N)O2 (configuration not stated),250,100,250,100,200,62.5,1000,1000
N#CC1=C(N)Oc2cc(O)ccc2C1c1cc2ccccc2nc1N1CCOCC1 (configuration not stated),250,250,250,200,250,100,> 1000,1000
O=C(O)c1cn(C2CC2)c2cc(N3CCNCC3)c(F)cc2c1=O [CIPROFLOXACIN],50,–,–,25,25,25,–,–
